# Test results published in ChEMBL document CHEMBL4665653, “VU6005806/AZN-00016130, an advanced M positive allosteric modulator (PAM) profiled as a potential preclinical development candidate” (Bioorg Med Chem Lett, 2019).
# What was measured:
# [1] = Plasma clearance in rat; assay type: ADME; conditions: read-out: CL(app)
# Rattus norvegicus [2] = species on record: Rattus norvegicus; assay: Displacement of [35S] dATPalphaS from P2Y receptor in Wistar rat brain at 10 uM incubated for 180 mins by radiometric scintillation analysis relative to control; assay type: tissue-based
# [3] = target: B2 bradykinin receptor (Homo sapiens) (UniProt P30411); assay: Displacement of [3H]bradykinin from recombinant full length human B2 receptor expressed in Chem-1 cells assessed as residual binding level for radioligand at 10 uM after 60 mins by radiometric scintillation analysis relative to control; assay type: cell-based
# Chain of B2 bradykinin receptor (Homo sapiens) (P30411 whole entry): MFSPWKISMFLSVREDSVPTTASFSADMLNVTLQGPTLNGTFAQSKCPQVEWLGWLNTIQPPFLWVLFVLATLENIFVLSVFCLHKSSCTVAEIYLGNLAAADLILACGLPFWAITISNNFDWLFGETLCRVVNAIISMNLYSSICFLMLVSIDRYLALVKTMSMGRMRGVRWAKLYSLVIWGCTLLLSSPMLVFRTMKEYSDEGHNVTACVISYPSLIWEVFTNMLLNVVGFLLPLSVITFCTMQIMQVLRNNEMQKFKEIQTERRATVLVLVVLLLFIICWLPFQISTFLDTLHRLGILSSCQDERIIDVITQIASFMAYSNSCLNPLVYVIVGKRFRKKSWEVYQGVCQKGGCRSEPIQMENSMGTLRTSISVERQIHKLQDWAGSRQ
# [4] = target: Alpha-1B adrenergic receptor (Homo sapiens) (UniProt P35368); assay: Displacement of [3H]-Prazosin from human adrenergic alpha 1B receptor expressed in Chem-1 cells assessed as residual binding level for radioligand at 10 uM incubated for 60 mins by radiometric scintillation analysis relative to control; assay type: cell-based
# Chain of Alpha-1B adrenergic receptor (Homo sapiens) (P35368 whole entry): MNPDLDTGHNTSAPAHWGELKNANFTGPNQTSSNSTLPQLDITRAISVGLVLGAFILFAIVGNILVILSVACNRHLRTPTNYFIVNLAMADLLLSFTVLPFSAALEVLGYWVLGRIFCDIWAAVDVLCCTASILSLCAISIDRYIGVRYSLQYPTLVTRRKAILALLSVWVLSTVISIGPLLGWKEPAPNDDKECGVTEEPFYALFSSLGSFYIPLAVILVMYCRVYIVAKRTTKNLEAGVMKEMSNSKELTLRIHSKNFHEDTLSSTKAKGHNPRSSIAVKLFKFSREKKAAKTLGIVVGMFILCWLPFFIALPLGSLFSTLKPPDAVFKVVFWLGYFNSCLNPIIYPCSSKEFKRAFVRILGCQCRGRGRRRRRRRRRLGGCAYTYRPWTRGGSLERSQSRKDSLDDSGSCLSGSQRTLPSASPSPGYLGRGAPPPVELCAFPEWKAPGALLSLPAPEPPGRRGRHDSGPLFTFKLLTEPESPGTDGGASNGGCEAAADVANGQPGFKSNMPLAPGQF
# [5] = target: Muscarinic acetylcholine receptor M3 (Homo sapiens, UniProt P20309); assay: Displacement of [3H]N-Methylscopolamine from full length human recombinant muscarinic M3 receptor expressed in CHOK1 cells assessed as residual binding level for radioligand at 10 uM measured after 120 mins by radiometric scintillation analysis relative to control; assay type: cell-based; conditions: CHO-K1
# [6] = target: T1, Muscarinic acetylcholine receptor M4 (Homo sapiens, UniProt P08173); assay: Positive allosteric modulation of human M4 receptor/Gqi5 in presence of EC20 acetylcholine by calcium mobilization assay; assay type: functional
# T1 sequence (P08173 whole entry): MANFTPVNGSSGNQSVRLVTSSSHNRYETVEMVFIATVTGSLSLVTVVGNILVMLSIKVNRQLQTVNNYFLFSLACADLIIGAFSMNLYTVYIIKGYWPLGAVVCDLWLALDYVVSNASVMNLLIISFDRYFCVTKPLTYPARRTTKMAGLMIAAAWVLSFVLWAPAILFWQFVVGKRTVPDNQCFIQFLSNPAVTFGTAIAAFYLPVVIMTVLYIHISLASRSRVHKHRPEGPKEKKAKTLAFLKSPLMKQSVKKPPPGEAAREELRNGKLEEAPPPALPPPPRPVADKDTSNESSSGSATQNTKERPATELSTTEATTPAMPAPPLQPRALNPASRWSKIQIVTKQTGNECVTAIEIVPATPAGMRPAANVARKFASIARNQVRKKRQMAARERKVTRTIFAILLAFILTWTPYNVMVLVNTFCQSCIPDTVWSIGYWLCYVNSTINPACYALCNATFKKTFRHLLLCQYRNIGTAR
# [7] = target: T2, Muscarinic acetylcholine receptor M2 (Homo sapiens, UniProt P08172); assay: Positive allosteric modulation of human M2 receptor/Gqi5 in presence of EC20 acetylcholine by calcium mobilization assay
# T2 sequence (P08172 whole entry): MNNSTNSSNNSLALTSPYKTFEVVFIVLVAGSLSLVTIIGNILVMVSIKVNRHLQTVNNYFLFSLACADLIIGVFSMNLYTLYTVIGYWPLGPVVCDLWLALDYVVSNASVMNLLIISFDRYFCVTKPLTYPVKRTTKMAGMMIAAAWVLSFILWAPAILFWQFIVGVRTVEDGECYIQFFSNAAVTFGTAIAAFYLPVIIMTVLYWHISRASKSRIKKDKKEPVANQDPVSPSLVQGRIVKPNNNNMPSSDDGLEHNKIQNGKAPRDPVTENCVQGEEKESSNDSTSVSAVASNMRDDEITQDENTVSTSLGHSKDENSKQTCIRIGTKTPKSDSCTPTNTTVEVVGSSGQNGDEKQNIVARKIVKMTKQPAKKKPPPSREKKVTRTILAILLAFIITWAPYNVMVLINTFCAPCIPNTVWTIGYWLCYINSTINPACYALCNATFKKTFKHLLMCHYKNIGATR
# [8] = target: Alpha-1A adrenergic receptor (Homo sapiens) (UniProt P35348); assay: Displacement of [3H]-Prazosin from human adrenergic alpha 1A receptor expressed in Chem-1 cells assessed as residual binding level for radioligand at 10 uM incubated for 60 mins by radiometric scintillation analysis relative to control; assay type: cell-based
# Chain of Alpha-1A adrenergic receptor (Homo sapiens) (P35348 whole entry): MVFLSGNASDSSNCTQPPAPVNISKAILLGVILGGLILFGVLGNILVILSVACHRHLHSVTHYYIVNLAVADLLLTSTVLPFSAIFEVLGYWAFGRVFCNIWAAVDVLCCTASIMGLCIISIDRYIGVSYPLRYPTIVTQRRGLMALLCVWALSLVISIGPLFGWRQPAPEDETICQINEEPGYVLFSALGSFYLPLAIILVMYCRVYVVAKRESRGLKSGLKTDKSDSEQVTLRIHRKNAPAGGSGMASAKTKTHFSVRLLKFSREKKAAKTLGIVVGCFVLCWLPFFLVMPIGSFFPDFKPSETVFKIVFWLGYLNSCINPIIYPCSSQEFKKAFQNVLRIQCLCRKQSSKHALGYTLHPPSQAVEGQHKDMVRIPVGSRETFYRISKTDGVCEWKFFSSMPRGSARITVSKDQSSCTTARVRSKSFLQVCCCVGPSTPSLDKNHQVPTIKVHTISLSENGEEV
# [9] = target: Muscarinic acetylcholine receptor M5 (Homo sapiens, UniProt P08912); assay: Positive allosteric modulation of human M5 receptor
# Chain of Muscarinic acetylcholine receptor M5 (P08912 whole entry): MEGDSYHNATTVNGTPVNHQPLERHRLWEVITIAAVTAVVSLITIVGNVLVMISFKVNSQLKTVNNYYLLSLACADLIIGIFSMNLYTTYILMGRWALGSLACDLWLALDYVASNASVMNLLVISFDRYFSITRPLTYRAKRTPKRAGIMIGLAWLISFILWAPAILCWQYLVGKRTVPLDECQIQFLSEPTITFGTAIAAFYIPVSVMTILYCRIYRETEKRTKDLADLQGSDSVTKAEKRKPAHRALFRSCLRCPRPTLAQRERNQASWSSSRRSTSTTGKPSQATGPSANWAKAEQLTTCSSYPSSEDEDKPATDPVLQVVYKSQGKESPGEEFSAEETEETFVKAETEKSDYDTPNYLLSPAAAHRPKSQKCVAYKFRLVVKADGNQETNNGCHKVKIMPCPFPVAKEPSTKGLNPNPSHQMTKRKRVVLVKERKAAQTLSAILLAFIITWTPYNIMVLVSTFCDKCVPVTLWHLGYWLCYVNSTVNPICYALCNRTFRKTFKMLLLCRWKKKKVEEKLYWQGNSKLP
# [10] = target: 5-hydroxytryptamine receptor 2B (Homo sapiens) (UniProt P41595); assay: Displacement of [3H]-LSD from recombinant full length human 5HT2B receptor expressed in CHO-K1 cells assessed as residual binding level for radioligand at 10 uM incubated for 60 mins by; assay type: cell-based
# Chain of 5-hydroxytryptamine receptor 2B (Homo sapiens) (P41595 whole entry): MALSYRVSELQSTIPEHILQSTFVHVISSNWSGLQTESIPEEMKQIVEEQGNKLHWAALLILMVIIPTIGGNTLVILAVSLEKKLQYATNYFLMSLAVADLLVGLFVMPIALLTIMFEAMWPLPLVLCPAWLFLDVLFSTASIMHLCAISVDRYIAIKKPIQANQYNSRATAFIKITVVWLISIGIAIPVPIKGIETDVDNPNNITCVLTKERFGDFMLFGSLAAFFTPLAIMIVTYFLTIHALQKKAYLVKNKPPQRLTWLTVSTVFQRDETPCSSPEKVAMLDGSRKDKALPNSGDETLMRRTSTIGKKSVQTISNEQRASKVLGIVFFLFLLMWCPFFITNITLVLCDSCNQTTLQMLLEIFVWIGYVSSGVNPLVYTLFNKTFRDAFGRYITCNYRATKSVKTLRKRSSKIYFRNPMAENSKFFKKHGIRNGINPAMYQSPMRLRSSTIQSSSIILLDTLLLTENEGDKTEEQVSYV
# [11] = target: Sigma non-opioid intracellular receptor 1 (Homo sapiens) (UniProt Q99720); assay: Displacement of [3H]-(+)-pentazocine from human sigma-1 receptor in human T lymphocyte Jurkat cell membrane assessed as residual binding level for radioligand at 10 uM incubated for 120 mins by liquid scintillation counting method relative to control; assay type: tissue-based
# Chain of Sigma non-opioid intracellular receptor 1 (Homo sapiens) (Q99720 whole entry): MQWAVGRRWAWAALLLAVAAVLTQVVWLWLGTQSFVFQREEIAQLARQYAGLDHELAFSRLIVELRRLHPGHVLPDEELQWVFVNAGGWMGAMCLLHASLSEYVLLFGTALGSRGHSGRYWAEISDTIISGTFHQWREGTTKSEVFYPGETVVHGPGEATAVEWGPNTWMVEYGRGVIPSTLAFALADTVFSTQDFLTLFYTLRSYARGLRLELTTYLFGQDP
# Rattus norvegicus [12] = species on record: Rattus norvegicus; assay: Displacement of [125I]-Triiodothyronine from thyroid hormone receptors in Sprague-Dawley rat liver assessed as residual binding level for radioligand at 10 uM incubated for 1080 mins by radiometric scintillation analysis relative to control; assay type: tissue-based
# [13] = target: Endothelin receptor type B (Homo sapiens) (UniProt P24530); assay: Displacement of [125I]endothelin-1 from recombinant full length human recombinant ETB receptor expressed in CHO-K1 cells assessed as residual binding level for radioligand at 10 uM measured after 120 mins by radiometric scintillation analysis relative to control; assay type: cell-based
# [14] = Fraction unbound in rat brain; assay type: ADME, tissue-based
# [15] = Plasma clearance in dog; assay type: ADME, Canis lupus familiaris; conditions: read-out: CL(app)
# Rattus norvegicus [16] = species on record: Rattus norvegicus; assay: Displacement of [3H]-Kainic acid from Glutamate ionotropic kainate receptor in Wistar rat brain assessed as residual binding level for radioligand at 10 uM incubated for 120 mins by scintillation counting analysis relative to control; assay type: tissue-based
# [17] = target: Sodium-dependent dopamine transporter (Homo sapiens) (UniProt Q01959); assay: Displacement of [125I]RTI-55 from full length recombinant human dopamine transporter expressed in CHO-S cells assessed as residual binding level for radioligand at 10 uM after 180 mins by radiometric scintillation analysis relative to control; assay type: cell-based
# [18] = Volume of distribution at steady state in dog; assay type: ADME, Canis lupus familiaris; conditions: in vivo, read-out: Vdss
# [19] = target: Interleukin-1 receptor type 1 (Homo sapiens) (UniProt P14778); assay: Displacement of [125I]-Interleukin 1beta from human interleukin IL-1 R1 receptor assessed as residual binding level for radioligand at 10 uM incubated for 1200 mins by scintillation counting analysis relative to control
# [20] = target: L-type calcium channel Cav1.2, benzothiazepine binding site (Rattus norvegicus, UniProt P22002); assay: Displacement of [3H]-Diltiazem from L-type calcium channel Cav1.2 benzothiazepine binding site in Wistar rat brain membrane assessed as residual binding level for radioligand at 10 uM incubated for 180 mins by radiometric scintillation analysis relative to control; assay type: cell membranes; conditions: probe [3H]-Diltiazem, read-out: Activity
# Chain of L-type calcium channel Cav1.2, benzothiazepine binding site (P22002 whole entry): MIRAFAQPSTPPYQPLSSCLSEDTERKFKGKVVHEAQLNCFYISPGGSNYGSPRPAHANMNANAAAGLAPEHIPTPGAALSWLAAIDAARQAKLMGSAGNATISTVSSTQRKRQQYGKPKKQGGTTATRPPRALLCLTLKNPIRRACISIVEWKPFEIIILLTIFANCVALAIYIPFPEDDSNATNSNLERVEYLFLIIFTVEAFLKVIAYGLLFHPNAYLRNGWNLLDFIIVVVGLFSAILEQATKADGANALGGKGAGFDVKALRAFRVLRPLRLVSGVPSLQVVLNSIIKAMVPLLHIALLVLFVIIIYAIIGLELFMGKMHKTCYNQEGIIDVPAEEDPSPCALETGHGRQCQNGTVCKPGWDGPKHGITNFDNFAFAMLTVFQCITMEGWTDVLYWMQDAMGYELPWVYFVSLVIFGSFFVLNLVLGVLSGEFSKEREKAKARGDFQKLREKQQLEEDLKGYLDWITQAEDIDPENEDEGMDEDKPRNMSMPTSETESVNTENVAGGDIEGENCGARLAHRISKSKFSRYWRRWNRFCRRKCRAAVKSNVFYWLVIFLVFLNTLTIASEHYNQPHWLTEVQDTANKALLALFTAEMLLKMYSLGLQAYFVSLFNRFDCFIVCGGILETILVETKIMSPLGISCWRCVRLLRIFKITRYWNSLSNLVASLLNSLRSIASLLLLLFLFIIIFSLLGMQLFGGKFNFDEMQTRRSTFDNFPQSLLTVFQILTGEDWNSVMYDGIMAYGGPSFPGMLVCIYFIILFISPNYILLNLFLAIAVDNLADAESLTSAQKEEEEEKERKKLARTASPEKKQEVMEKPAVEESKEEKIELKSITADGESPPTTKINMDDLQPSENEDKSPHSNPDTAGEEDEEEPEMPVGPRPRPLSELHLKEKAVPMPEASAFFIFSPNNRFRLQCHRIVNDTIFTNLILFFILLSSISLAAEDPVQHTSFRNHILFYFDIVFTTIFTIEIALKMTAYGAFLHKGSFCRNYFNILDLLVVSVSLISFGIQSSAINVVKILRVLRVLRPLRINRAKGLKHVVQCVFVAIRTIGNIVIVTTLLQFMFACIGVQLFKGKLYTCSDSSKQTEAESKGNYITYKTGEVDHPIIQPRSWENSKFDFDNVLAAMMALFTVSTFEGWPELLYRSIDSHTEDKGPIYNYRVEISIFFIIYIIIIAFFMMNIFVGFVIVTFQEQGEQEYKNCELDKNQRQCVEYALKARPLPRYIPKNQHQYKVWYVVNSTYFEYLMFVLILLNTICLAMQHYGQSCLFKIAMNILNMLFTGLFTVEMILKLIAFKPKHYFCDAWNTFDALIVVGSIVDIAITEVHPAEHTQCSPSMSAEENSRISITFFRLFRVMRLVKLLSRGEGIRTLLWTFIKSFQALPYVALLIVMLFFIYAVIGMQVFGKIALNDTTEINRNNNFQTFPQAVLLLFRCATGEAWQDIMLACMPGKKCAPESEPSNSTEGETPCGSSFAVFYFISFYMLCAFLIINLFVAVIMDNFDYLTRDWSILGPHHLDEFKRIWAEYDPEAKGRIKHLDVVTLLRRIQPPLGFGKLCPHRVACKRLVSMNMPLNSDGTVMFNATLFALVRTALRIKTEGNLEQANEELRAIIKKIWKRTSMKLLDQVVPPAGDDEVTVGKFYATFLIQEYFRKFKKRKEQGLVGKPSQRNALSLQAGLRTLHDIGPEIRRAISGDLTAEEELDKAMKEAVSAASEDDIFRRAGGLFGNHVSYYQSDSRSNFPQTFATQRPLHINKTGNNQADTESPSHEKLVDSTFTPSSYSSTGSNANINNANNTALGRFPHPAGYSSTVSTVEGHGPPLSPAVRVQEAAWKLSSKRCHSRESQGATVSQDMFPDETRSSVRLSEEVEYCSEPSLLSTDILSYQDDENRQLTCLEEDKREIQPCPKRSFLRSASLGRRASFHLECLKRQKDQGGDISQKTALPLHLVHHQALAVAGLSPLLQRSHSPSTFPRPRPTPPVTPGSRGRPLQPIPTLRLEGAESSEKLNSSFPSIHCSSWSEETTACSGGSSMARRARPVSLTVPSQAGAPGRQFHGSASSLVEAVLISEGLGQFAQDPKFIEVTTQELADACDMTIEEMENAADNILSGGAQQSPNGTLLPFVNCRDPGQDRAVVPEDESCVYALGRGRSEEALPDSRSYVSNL
# [21] = target: Histamine H1 receptor (Homo sapiens) (UniProt P35367); assay: Displacement of [3H]pyrilamine from full length recombinant human histamine H1 receptor expressed in CHO-K1 cells assessed as residual binding level for radioligand at 10 uM after 180 mins by scintillation counting analysis relative to control; assay type: cell-based
# [22] = target: Mu-type opioid receptor (Homo sapiens) (UniProt P35372); assay: Displacement of [3H]-Diprenorphine from recombinant full length human mu opioid receptor expressed in CHO-K1 cells assessed as residual binding level for radioligand at 10 uM incubated for 60 mins by scintillation counting analysis relative to control; assay type: cell-based
smiles,measurement,setting,value
COc1nnc2sc(C(=O)NC3CN(c4ncc(C(F)(F)F)cn4)C3)c(N)c2c1C,clearance,[1],7.7 mL/min/kg
same,Activity,Rattus norvegicus [2],> 50%
same,Activity,[3],> 50%
same,Activity,[4],> 50%
same,Activity,[5],> 50%
same,EC50,[6],0.09 µM
same,EC50,[7],> 30 µM
same,Activity,[8],> 50%
same,EC50,[9],> 30 µM
same,Activity,[10],> 50%
same,Activity,[11],> 50%
same,Activity,Rattus norvegicus [12],> 50%
same,Activity,[13],> 50%
same,fraction unbound,[14],0.039
same,clearance,[15],5.9 mL/min/kg
same,Activity,Rattus norvegicus [16],> 50%
same,Activity,[17],> 50%
same,Vd,[18],0.57 L/kg
same,Activity,[19],> 50%
same,"activity at 3 h, 10 µM",[20],> 50%
same,Activity,[21],> 50%
same,Activity,[22],> 50%
